Reference: patent US20260224583A1, “COMPOSITIONS USEFUL FOR MODULATING SPLICING” (Skyhawk Therapeutics, Inc., priority 2023, published 2026)

The molecules below were run on ATXN3 transcripts containing exon 4 (E4E5) (assay: ATXN3 Quantitative Splicing Assay (qPCR, E4E5 primers/probe)). Details: Homo sapiens; SK-N-MC cells, 24 h treatment, 30 μM to 0.6 nM; read-out: ATXN3 Potency - Splicing E4E5 IC50.
Format: cell-based
Method: Human neuroblastoma SK-N-MC cells were plated in 384-well plates at 20,000 cells/well. Twenty-four hours after plating, cells were treated with compounds for 24 h at appropriate concentrations ranging from 30 μM to 0.6 nM (0.3% DMSO). Treated cells were lysed in 15 μL of lysis buffer, and cDNA was synthesized using the Fast Advanced Cells-to-Ct kit. Two μL of each cDNA was used in qPCR reactions to confirm the exon 4 skipped transcripts of ATXN3. A second set of primers/probe E4E5 was used to detect the transcripts containing exon 4. The third set of primers/probe E8E9 was used to detect total gene level of ATXN3. The qPCR reactions were prepared in 384-well plates in 10 μL volume, using TaqMan™ Fast Advanced Master Mix with primers and probes shown in the table below. Reactions were run in a Quant Studio 6 qPCR instrument with default settings.
The primers and probes are listed below in Table 3.

| IC50 [nM] | SMILES |
| --- | --- |
| 0.01 to 100 | C[C@H](F)[C@H](N)Cc1cc2c(NCc3ccco3)nc(Cl)nn2c1Br [Compound 1, 6-((2R,3S)-2-amino-3-fluorobutyl)-7-bromo-2-chloro-N-(furan-2-ylmethyl)pyrrolo[2,1-f][1,2,4]triazin-4-amine] |
| 101 to 500 | C[C@H](F)[C@H](N)Cc1cc2c(NCc3ccco3)nc(Cl)nn2c1Cl [Compound 2, 6-((2R,3S)-2-amino-3-fluorobutyl)-2,7-dichloro-N-(furan-2-ylmethyl)pyrrolo[2,1-f][1,2,4]triazin-4-amine] |
| 0.01 to 100 | N[C@@H](CF)Cc1cc2c(NCc3ccco3)nc(Cl)nn2c1Cl [Compound 3, (R)-6-(2-amino-3-fluoropropyl)-2,7-dichloro-N-(furan-2-ylmethyl)pyrrolo[2,1-f][1,2,4]triazin-4-amine] |
| 0.01 to 100 | N[C@@H](CF)Cc1cc2c(NCc3ccco3)nc(Cl)nn2c1Br [Compound 4, (R)-6-(2-amino-3-fluoropropyl)-7-bromo-2-chloro-N-(furan-2-ylmethyl)pyrrolo[2,1-f][1,2,4]triazin-4-amine] |
| 101 to 500 | N[C@@H](COC(F)F)Cc1cc2c(NCc3ccco3)nc(Cl)nn2c1Cl [Compound 5, (R)-6-(2-amino-3-(difluoromethoxy)propyl)-2,7-dichloro-N-(furan-2-ylmethyl)pyrrolo[2,1-f][1,2,4]triazin-4-amine] |
| 101 to 500 | N[C@@H](COC(F)F)Cc1cc2c(NCc3ccco3)nc(Cl)nn2c1Br [Compound 6, (R)-6-(2-amino-3-(difluoromethoxy)propyl)-7-bromo-2-chloro-N-(furan-2-ylmethyl)pyrrolo[2,1-f][1,2,4]triazin-4-amine] |
| 101 to 500 | COC[C@H](N)Cc1cc2c(NCc3ccco3)nc(Cl)nn2c1Cl [Compound 7, (R)-6-(2-amino-3-methoxypropyl)-2,7-dichloro-N-(furan-2-ylmethyl)pyrrolo[2,1-f][1,2,4]triazin-4-amine] |
| 101 to 500 | COC[C@H](N)Cc1cc2c(NCc3ccco3)nc(Cl)nn2c1Br [Compound 8] |
| 101 to 500 | [2H]C([2H])([2H])OCC(N)Cc1cc2c(NCc3ccco3)nc(Cl)nn2c1Br (centres unmarked) [Compound 11] |
| 101 to 500 | [2H]C([2H])([2H])OC[C@H](N)Cc1cc2c(NCc3ccco3)nc(Cl)nn2c1Cl [Compound 12] |
| 101 to 500 | N[C@H](Cc1cc2c(NCc3ccco3)nc(Cl)nn2c1Br)CC1CC1 [Compound 13] |
| 101 to 500 | N[C@H](Cc1cc2c(NCc3ccco3)nc(Cl)nn2c1Br)CC(F)(F)F [Compound 14] |
| 101 to 500 | N[C@@H](CCOC(F)(F)F)Cc1cc2c(NCc3ccco3)nc(Cl)nn2c1Br [Compound 15] |
| 0.01 to 100 | N[C@@H](CCOC(F)F)Cc1cc2c(NCc3ccco3)nc(Cl)nn2c1Br [Compound 16] |
| 101 to 500 | N[C@H](Cc1cc2c(NCc3ccco3)nc(Cl)nn2c1Cl)CC1CC1 [Compound 17] |

| SMILES | IC50 [nM] |
| --- | --- |
| C[C@H](N)Cc1cc2c(NCc3ccco3)nc(Cl)nn2c1Cl [Compound 9] | 0.01 to 100 |
| C[C@H](N)Cc1cc2c(NCc3ccco3)nc(Cl)nn2c1Br [Compound 10] | 101 to 500 |
